Common to all, as to format: biochemical
One test has as its target LSD-1 (Homo sapiens, UniProt O60341). In words: LSD-1 A-screen (AlphaScreen) demethylase enzymatic assay. Conditions: approximate values; for IC50: read-out: Potency LSD-1 IC50; for inhibition at 50 µM: read-out: Potency LSD-1 % Inhibition at 50 μM. The protocol: (§1) Enzymatic activities of compounds of the present disclosure can be tested with recombinant human LSD using an in vitro enzymatic assay to determine the ability of the compounds of the present disclosure to inhibit LSD-1 and LSD2. Examples of the assay are provided below.
(§2) All of the enzymatic reactions were conducted in duplicate at room temperature for 60 minutes in a 10 μL mixture containing assay buffer, histone H3 peptide substrate, demthylase enzyme, and the test compound. These 10 μL reactions were carried out in wells of a 384-well Optiplate (PerkinElmer). The dilution of the compounds was first performed in 100% DMSO with the highest concentration at 5 mM Each intermediate compound dilution (in 100% DMSO) was then directly diluted 30× fold into assay buffer for 3.3× concentration (DMSO). […] From this intermediate step, 3 μL of compound was added to 4 μL of demethylase enzyme dilution was incubated for 30 minutes at room temperature. After this incubation, 3 μL of peptide substrate was added. The final DMSO concentration was 1%. After enzymatic reactions, 5 μL of anti-Mouse or anti-Rabbit Acceptor beads (PerkinElmer, diluted 1:500 with 1× detection buffer) and […] (BPS, diluted 1:800 with 1× detection buffer) were added to the reaction mix. After brief shaking, the plate was incubated for 30 minutes. Finally, 10 μL of AlphaScreen™ Streptavidin-conjugated donor beads (Perkin, diluted 1:125 with 1× detection buffer) were added. After 30 minutes, the samples were measured in an AlphaScreen microplate reader (EnSpire Alpha 2390 Multilabel Reader, Perkin Elmer).
(§3) Enzyme activity assays were performed in duplicates at each concentration. The A-screen intensity data were analyzed and compared. In the absence of the compound, the intensity in each data set was defined as 100% (Ce) activity. In the absence of enzyme, the intensity in each data set was defined as 0% (C0) activity. The percent activity in the presence of each compound was calculated according to the following equation: % activity=(C−C0)/(Ce−C0), where C=the intensity in the presence of the compound.
(§4) The value of percent activity versus a series of compound concentrations was then plotted using non-linear regression analysis of Sigmoidal dose-response curve generated with the equation Y=B+(T−B)/1+10((LogEC50−X)×Hill Slope), where Y=percent activity, B=minimum percent activity, T=maximum percent activity, X=logarithm of compound and Hill Slope=slope factor or Hill coefficient. The IC50 value was determined by the concentration causing a half-maximal percent activity.
(Bead proximity is the source of the signal in Alpha formats.)

The next test deals with T1, LSD2 (Homo sapiens, UniProt Q8NB78).
T1 sequence (Q8NB78 1-822): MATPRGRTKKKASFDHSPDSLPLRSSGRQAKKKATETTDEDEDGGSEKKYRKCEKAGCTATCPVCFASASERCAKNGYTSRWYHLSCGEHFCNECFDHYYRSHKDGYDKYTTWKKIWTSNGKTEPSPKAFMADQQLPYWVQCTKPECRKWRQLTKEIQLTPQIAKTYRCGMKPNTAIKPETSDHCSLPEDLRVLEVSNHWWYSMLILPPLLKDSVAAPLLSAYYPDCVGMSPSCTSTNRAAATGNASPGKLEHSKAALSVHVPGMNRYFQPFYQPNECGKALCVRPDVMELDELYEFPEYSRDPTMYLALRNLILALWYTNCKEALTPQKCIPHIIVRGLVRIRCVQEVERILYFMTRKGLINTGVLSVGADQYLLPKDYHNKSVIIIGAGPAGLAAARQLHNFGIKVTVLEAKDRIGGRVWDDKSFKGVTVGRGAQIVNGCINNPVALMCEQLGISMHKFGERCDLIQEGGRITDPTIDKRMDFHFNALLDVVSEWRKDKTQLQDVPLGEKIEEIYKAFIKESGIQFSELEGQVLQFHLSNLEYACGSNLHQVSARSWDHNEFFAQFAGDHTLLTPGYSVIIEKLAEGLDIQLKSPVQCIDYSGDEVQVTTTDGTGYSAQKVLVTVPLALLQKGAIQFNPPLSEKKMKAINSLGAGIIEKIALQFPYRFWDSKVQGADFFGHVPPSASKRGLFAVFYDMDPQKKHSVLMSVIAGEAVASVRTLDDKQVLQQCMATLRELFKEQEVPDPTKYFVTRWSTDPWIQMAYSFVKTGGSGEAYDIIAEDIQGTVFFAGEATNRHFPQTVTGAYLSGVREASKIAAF
In words: LSD2 A-screen (AlphaScreen) demethylase enzymatic assay. Conditions: 50 μM compound; approximate values; read-out: Potency LSD-2 % Inhibition at 50 μM. The protocol:
as §1, §2, §3, §4

For a further test, the target named is GSK3β (Homo sapiens, UniProt P49841). Briefly: GSK3β in vitro enzymatic assay (Kinase-Glo Max luminescence). Conditions: recombinant human GSK3, 10 μM ATP; approximate values; read-out: Potency GSK3beta. As to the method: (§5) Enzymatic activities of compounds of the present disclosure can be tested using recombinant human GSK3 in an in vitro enzymatic assay to determine the ability of the compounds of the present disclosure to inhibit GSK3α and GSK3β.
(§6) The assay was performed using Kinase-Glo® Max luminescence kinase assay kit (Promega). The assay measures kinase activity by quantitating the amount of ATP remaining in solution following a kinase reaction. The luminescent signal from the assay is correlated with the amount of ATP present and is inversely correlated with the amount of kinase activity.
(§7) To perform the assay, compounds were diluted in 10% DMSO and 5 μl of the dilution was added to a 50 μl reaction so that the final concentration of DMSO was 1% in all of reactions. The enzymatic reactions were conducted at 30° C. for 40 minutes. The 50 μl reaction mixture contained 40 mM Tris, pH 7.4, 10 mM MgCl2, 0.1 mg/ml BSA, 2 mM DTT, 0.1 mg/ml GSK tide substrate, 10 uM ATP and GSK3. After the enzymatic reaction, 50 μl of Kinase-Glo Max Luminescence kinase assay solution (Promega) was added to each reaction and plates were incubated for 15 minutes at room temperature. Luminescence signal was measured using a BioTek Synergy 2 microplate reader.
(§8) Kinase activity assays were performed in duplicate at each concentration. The luminescence data were analyzed using the computer software, GraphPad Prism. The difference between luminescence intensities in the absence of Kinase (Lut) and in the presence of Kinase (Luc) was defined as 100% activity (Lut-Luc). Using luminescence signal (Lu) in the presence of the compound, percent activity was calculated as: % activity={(Lut-Lu)/(Lut-Luc)}×100%, where Lu=the luminescence intensity in the presence of the compound (all percent activities below zero were shown zero in the table).
(§9) The values of percent activity versus a series of compound concentrations were then plotted using non-linear regression analysis of Sigmoidal dose-response curve generated with the equation Y=B+(T−B)/1+10((LogEC50−X)×Hill Slope), where Y=percent activity, B=minimum percent activity, T=maximum percent activity, X=logarithm of compound and Hill Slope=slope factor or Hill coefficient. The ICs, value was determined by the concentration causing a half-maximal percent activity.
In general terms: Kinase-Glo measures the ATP left after a reaction by luminescence.

The next test deals with GSK3α (Homo sapiens, UniProt P49840). Briefly: GSK3α in vitro enzymatic assay (Kinase-Glo Max luminescence). The settings on record: recombinant human GSK3, 10 μM ATP; approximate values; read-out: Potency GSK3alpha. As to the method:
as §5, §6, §7, §8, §9

A value given as a limit tells only on which side of the number the result lay.

Consider 19 molecules from US20230058189A1, “QUINOLIN-4-ONE AND 4(1H)-CINNOLINONE COMPOUNDS AND METHODS OF USING SAME” (Frequency Therapeutics, Inc., priority 2019, published 2023).

GSK3α, sequence (P49840 whole entry): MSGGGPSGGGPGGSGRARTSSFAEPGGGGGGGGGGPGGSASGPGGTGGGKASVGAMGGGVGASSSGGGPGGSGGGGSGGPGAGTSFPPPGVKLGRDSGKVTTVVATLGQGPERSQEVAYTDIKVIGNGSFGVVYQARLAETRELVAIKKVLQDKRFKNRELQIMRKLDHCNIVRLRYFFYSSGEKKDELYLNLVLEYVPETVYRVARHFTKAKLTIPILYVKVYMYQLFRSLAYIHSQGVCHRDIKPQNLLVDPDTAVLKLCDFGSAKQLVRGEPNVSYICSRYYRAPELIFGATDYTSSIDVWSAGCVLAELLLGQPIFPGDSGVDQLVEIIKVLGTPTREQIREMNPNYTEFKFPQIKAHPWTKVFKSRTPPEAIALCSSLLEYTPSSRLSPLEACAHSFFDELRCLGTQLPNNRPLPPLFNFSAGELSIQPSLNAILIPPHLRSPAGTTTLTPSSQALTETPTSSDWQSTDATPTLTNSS
GSK3β, sequence (P49841 whole entry): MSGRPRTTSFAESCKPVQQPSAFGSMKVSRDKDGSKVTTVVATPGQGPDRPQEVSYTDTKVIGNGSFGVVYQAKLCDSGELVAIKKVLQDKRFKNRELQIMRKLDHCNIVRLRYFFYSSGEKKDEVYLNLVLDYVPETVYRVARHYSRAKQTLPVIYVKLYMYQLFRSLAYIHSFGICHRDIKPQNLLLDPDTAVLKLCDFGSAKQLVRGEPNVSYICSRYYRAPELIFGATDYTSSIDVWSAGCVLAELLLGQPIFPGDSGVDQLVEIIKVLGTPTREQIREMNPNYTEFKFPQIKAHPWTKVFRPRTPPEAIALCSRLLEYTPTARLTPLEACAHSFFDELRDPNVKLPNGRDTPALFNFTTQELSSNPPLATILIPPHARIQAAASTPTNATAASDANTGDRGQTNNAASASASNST

The term inhibition denotes the change of the read-out against control, counted positive when it falls. `Cn1cc(C(=O)O)c(=O)c2c(N)c(F)c(NCCN[C@@H]3C[C@H]3c3ccccc3)cc21` (relative stereo) [Compound I-86]: the IC50 turned out to be 1900 nM at LSD-1, 2170 nM at GSK3β and 919 nM on GSK3α. Besides, at LSD2, the inhibition at 50 µM came out at 6%.

As to `CCCn1cc(C(=O)O)c(=O)c2c(N)c(F)c(NCCN[C@@H]3C[C@H]3c3ccccc3)cc21` (relative stereo) [Compound I-87], the IC50 came out at 3300 nM at LSD-1, 157 nM on GSK3β and 114 nM on GSK3α. For the same molecule, the inhibition at 50 µM at LSD2 was 15%.

For the molecule `CC(C)n1cc(C(=O)O)c(=O)c2c(N)c(F)c(NCCN[C@@H]3C[C@H]3c3ccccc3)cc21` (relative stereo) [Compound I-88], the IC50 at LSD-1 worked out at 2600 nM; on GSK3β, 83 nM; on GSK3α it was 19.5 nM. Further, at LSD2, the inhibition at 50 µM was 14%.

Consider `Nc1c(F)c(NCCN[C@@H]2C[C@H]2c2ccccc2)cc2c1c(=O)c(C(=O)O)cn2C1CC1` (relative stereo) [Compound I-89], for which the IC50 on LSD-1 turned out to be 7400 nM; on GSK3β, 308 nM; on GSK3α, 393 nM. Further, the inhibition at 50 µM on LSD2 turned out to be 5%.

On to `CC(C)n1cc(C(=O)O)c(=O)c2c(N)c(F)c(N[C@]3(C)C[C@@H](N[C@@H]4C[C@H]4c4ccccc4)C3)cc21` (relative stereo) [Compound I-93], for which the inhibition at 50 µM turned out to be 3% at LSD-1 (50 μM compound) and 2% on LSD2. Also, the values for the IC50 at GSK3β and on GSK3α were 6540 nM and 3950 nM, respectively.

For `CCn1cc(C(=O)O)c(=O)c2c(N)c(F)c(N[C@@H]3C[C@H]3c3ccccc3)cc21` (single isomer, unassigned) [Compound I-20], the “Potency LSD-1 % Inhibition at 50 μM” value at LSD-1 (50 μM compound, 50 µM) is reported as less than 10% @ 50 μM. Besides, the inhibition at 50 µM on LSD2 came out at 10%. The IC50 at GSK3β was determined as 338 nM; at GSK3α, 102 nM.

For the molecule `CCn1cc(C(=O)O)c(=O)c2cc(F)c(NC3CCCCC3)cc21` [Compound I-1], the inhibition at 50 µM at LSD-1 (50 μM compound) amounted to 10%; at LSD2, 6%. Moreover, the IC50 worked out at 6700 nM at GSK3β and 3600 nM at GSK3α.

On to `CCC(CC)n1cc(C(=O)O)c(=O)c2c(C)c(F)c(NC3CCCCC3)cc21` [Compound I-3], for which the inhibition at 50 µM came to 13% on LSD-1 (50 μM compound) and 0% at LSD2. Besides, the IC50 came out at 366 nM at GSK3β and 250 nM on GSK3α.

For the molecule `CCn1cc(C(=O)O)c(=O)c2c(N)c(F)c(NC3CCCCC3)cc21` [Compound I-7], the inhibition at 50 µM on LSD-1 (50 μM compound) is 10%; on LSD2, 5%. In addition, the IC50 on GSK3β amounted to 18 nM; on GSK3α, 38 nM.

As to `CCn1cc(C(=O)O)c(=O)c2c(N)c(F)c(NC3CCOCC3)cc21` [Compound I-8], the inhibition at 50 µM at LSD-1 (50 μM compound) came to 10%; on LSD2, 1%. Also, the IC50 on GSK3β was found to be 452 nM; on GSK3α, 713 nM.

On to `CCn1cc(C(=O)O)c(=O)c2c(N)c(F)c(NC3CCCC3)cc21` [Compound I-9], for which the inhibition at 50 µM on LSD-1 (50 μM compound) turned out to be 6%; on LSD2 it was 3%. Further, the IC50 amounted to 53 nM on GSK3β and 69 nM at GSK3α.

Turning to `CCn1cc(C(=O)O)c(=O)c2c(N)c(F)c(NC3CCc4ccccc43)cc21` (stereo not shown) [Compound I-10], the inhibition at 50 µM at LSD-1 (50 μM compound) was found to be 22%; on LSD2 it was 6%. Besides, the IC50 turned out to be 1900 nM at GSK3β and 3800 nM on GSK3α.

For the molecule `CCn1cc(C(=O)O)c(=O)c2c(N)c(F)c(NC3Cc4ccccc4C3)cc21` [Compound I-11], the inhibition at 50 µM stood at 27% on LSD-1 (50 μM compound) and 13% at LSD2. In addition, the IC50 amounted to 990 nM at GSK3β and 846 nM on GSK3α.

With `CCn1cc(C(=O)O)c(=O)c2c(N)c(F)c(NC3CCC3)cc21` [Compound I-12], the inhibition at 50 µM on LSD-1 (50 μM compound) worked out at 36%; at LSD2, 0%. For the same molecule, the IC50 at GSK3β was determined as 55 nM; at GSK3α it was 82 nM.

With `CCn1cc(C(=O)O)c(=O)c2c(N)c(F)c(NC3CC3)cc21` [Compound I-15], the inhibition at 50 µM on LSD-1 (50 μM compound) and on LSD2 was 2% each time. The values for the IC50 at GSK3β and at GSK3α were 223 nM and 352 nM, respectively.

For the molecule `CCn1cc(C(=O)O)c(=O)c2c(N)c(F)c(Nc3ccccc3)cc21` [Compound I-16], the inhibition at 50 µM on LSD-1 (50 μM compound) amounted to 32%; at LSD2 it was 5%. Moreover, the IC50 was 68 nM at GSK3β and 107 nM at GSK3α.

Take `CCn1cc(C(=O)O)c(=O)c2c(N)c(F)c(NCc3ccccc3)cc21` [Compound I-17]: the inhibition at 50 µM on LSD-1 (50 μM compound) came to 2%; on LSD2 it was 19%. The figures for the IC50 on GSK3β and on GSK3α were 2030 nM and 659 nM, respectively.

As for `CCn1cc(C(=O)O)c(=O)c2c(N)c(F)c(NCCc3ccccc3)cc21` [Compound I-18], the inhibition at 50 µM at LSD-1 (50 μM compound) came out at 11%; on LSD2, 1%. The IC50 on GSK3β was determined as 231 nM; on GSK3α, 121 nM.

For the molecule `CCn1cc(C(=O)O)c(=O)c2c(N)c(F)c(NCCCc3ccccc3)cc21` [Compound I-19], the inhibition at 50 µM at LSD-1 (50 μM compound) stood at 27%; on LSD2, 17%. The IC50 on GSK3β worked out at 29 nM; at GSK3α it was 19 nM.
